Test results published in ChEMBL document CHEMBL1201862, “PubChem BioAssay data set” (2004).
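How tested: cells in 96-well plates exposed to compound for 48 hours at five concentrations. Abbreviation: GI50, concentration required for 50% inhibition of growth.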 Calls of active or inactive are those of the source. No stated cut-off is given here; in the data, active = GI50 up to about 1.1 µM and inactive = higher.

Experiments:
Experiment in all cases: DTP human tumour cell line panel, 48 h
NCI-H522 = test system: NCI-H522
HL-60 = test system: HL-60
LOX IMVI = test system: LOX IMVI
HOP-18 = test system: HOP-18
SF-539 = test system: SF-539
NCI-H23 = test system: NCI-H23
DLD-1 = test system: DLD-1
LXFL 529 = test system: LXFL 529
CAKI-1 = test system: CAKI-1
A549 = test system: A549
HCT-116 = test system: HCT-116
UACC-257 = test system: UACC-257
HCT-15 = test system: HCT-15
OVCAR-8 = test system: OVCAR-8
DMS-114 = test system: DMS-114
ACHN = test system: ACHN
SF-268 = test system: SF-268
SF-295 = test system: SF-295
COLO 205 = test system: COLO 205
NCI-H460 = test system: NCI-H460
786-0 = test system: 786-0
SK-MEL-28 = test system: SK-MEL-28
SN12C = test system: SN12C
UACC-62 = test system: UACC-62
UO-31 = test system: UO-31
CCRF-CEM = test system: CCRF-CEM
RPMI-8226 = test system: RPMI-8226
HOP-62 = test system: HOP-62
U-251 = test system: U-251
KM12 = test system: KM12
Malme-3M = test system: Malme-3M
OVCAR-5 = test system: OVCAR-5
SNB-75 = test system: SNB-75
SK-OV-3 = test system: SK-OV-3
TK-10 = test system: TK-10
SK-MEL-5 = test system: SK-MEL-5
M14 = test system: M14
OVCAR-4 = test system: OVCAR-4
M19-MEL = test system: M19-MEL
SR = test system: SR
SW-620 = test system: SW-620
DMS-273 = test system: DMS-273
HOP-92 = test system: HOP-92
SK-MEL-2 = test system: SK-MEL-2
RXF 393 = test system: RXF 393
MOLT-4 = test system: MOLT-4
NCI-H226 = test system: NCI-H226
HT-29 = test system: HT-29
IGROV-1 = test system: IGROV-1
K562 = test system: K562
SNB-19 = test system: SNB-19
SNB-78 = test system: SNB-78
OVCAR-3 = test system: OVCAR-3
EKVX = test system: EKVX
A498 = test system: A498
HCC 2998 = test system: HCC 2998
KM-20L2 = test system: KM-20L2

Oc1cc(-c2ccccc2)c2ccccc2n1
GI50 (NCI-H522): 20.9 µM (inactive) | GI50 (HL-60): 88.1 µM (inactive) | GI50 (LOX IMVI): 57.9 µM (inactive) | GI50 (HOP-18): 23.6 µM (inactive) | GI50 (SF-539): 52.7 µM (inactive) | GI50 (NCI-H23): 84.7 µM (inactive) | GI50 (DLD-1): 56 µM (inactive) | GI50 (LXFL 529): 34.2 µM (inactive) | GI50 (CAKI-1): 13.4 µM (inactive) | GI50 (A549): 34.4 µM (inactive) | GI50 (HCT-116): 64.7 µM (inactive) | GI50 (UACC-257): 61 µM (inactive) | GI50 (HCT-15): 58.9 µM | GI50 (OVCAR-8): > 100 µM (inactive) | GI50 (DMS-114): 12.7 µM (inactive) | GI50 (ACHN): 33.4 µM (inactive) | GI50 (SF-268): 52.6 µM (inactive) | GI50 (SF-295): 87.9 µM (inactive) | GI50 (COLO 205): > 100 µM (inactive) | GI50 (NCI-H460): 41.9 µM (inactive) | GI50 (786-0): > 100 µM (inactive) | GI50 (SK-MEL-28): 37.3 µM (inactive) | GI50 (SN12C): 30.9 µM (inactive) | GI50 (UACC-62): 48.3 µM (inactive) | GI50 (UO-31): 15.1 µM (inactive) | GI50 (CCRF-CEM): 60.8 µM (inactive) | GI50 (RPMI-8226): 67.6 µM (inactive) | GI50 (HOP-62): 28.2 µM (inactive) | GI50 (U-251): 69.5 µM (inactive) | GI50 (KM12): 71.4 µM (inactive) | GI50 (Malme-3M): 24.9 µM (inactive) | GI50 (OVCAR-5): 64.4 µM (inactive) | GI50 (SNB-75): 13 µM (inactive) | GI50 (SK-OV-3): 20.5 µM (inactive) | GI50 (TK-10): 38.6 µM (inactive) | GI50 (SK-MEL-5): 16.6 µM (inactive) | GI50 (M14): 41.8 µM (inactive) | GI50 (OVCAR-4): 73.6 µM (inactive) | GI50 (M19-MEL): 82.6 µM (inactive) | GI50 (SR): 45.5 µM (inactive) | GI50 (SW-620): > 100 µM (inactive) | GI50 (DMS-273): 60.5 µM (inactive) | GI50 (HOP-92): 5.62 µM (inactive) | GI50 (SK-MEL-2): 72.1 µM (inactive) | GI50 (RXF 393): 36.2 µM (inactive) | GI50 (MOLT-4): 37.8 µM (inactive) | GI50 (NCI-H226): 25.8 µM (inactive) | GI50 (HT-29): > 100 µM (inactive) | GI50 (IGROV-1): 23.9 µM (inactive) | GI50 (K562): 65.5 µM (inactive)

N#CC(NNC(=O)Cc1ccccc1)c1ccc(O)cc1 (stereo not given)
GI50 (NCI-H522): > 100 µM (inactive) | GI50 (HL-60): > 100 µM (inactive) | GI50 (LOX IMVI): > 100 µM (inactive) | GI50 (HOP-18): > 100 µM (inactive) | GI50 (SF-539): > 100 µM (inactive) | GI50 (NCI-H23): > 100 µM (inactive) | GI50 (DLD-1): > 100 µM (inactive) | GI50 (LXFL 529): > 100 µM (inactive) | GI50 (CAKI-1): > 100 µM (inactive) | GI50 (A549): > 100 µM (inactive) | GI50 (HCT-116): > 100 µM (inactive) | GI50 (UACC-257): > 100 µM (inactive) | GI50 (HCT-15): > 100 µM | GI50 (OVCAR-8): > 100 µM (inactive) | GI50 (DMS-114): > 100 µM (inactive) | GI50 (ACHN): > 100 µM (inactive) | GI50 (SF-268): > 100 µM (inactive) | GI50 (SF-295): > 100 µM (inactive) | GI50 (COLO 205): > 100 µM (inactive) | GI50 (NCI-H460): > 100 µM (inactive) | GI50 (786-0): > 100 µM (inactive) | GI50 (SK-MEL-28): > 100 µM (inactive) | GI50 (SN12C): > 100 µM (inactive) | GI50 (UACC-62): > 100 µM (inactive) | GI50 (UO-31): > 100 µM (inactive) | GI50 (CCRF-CEM): > 100 µM (inactive) | GI50 (RPMI-8226): > 100 µM (inactive) | GI50 (HOP-62): > 100 µM (inactive) | GI50 (U-251): > 100 µM (inactive) | GI50 (KM12): > 100 µM (inactive) | GI50 (Malme-3M): > 100 µM (inactive) | GI50 (OVCAR-5): > 100 µM (inactive) | GI50 (SNB-75): 28.2 µM (inactive) | GI50 (SK-OV-3): > 100 µM (inactive) | GI50 (TK-10): > 100 µM (inactive) | GI50 (SK-MEL-5): > 100 µM (inactive) | GI50 (M14): > 100 µM (inactive) | GI50 (OVCAR-4): > 100 µM (inactive) | GI50 (M19-MEL): > 100 µM (inactive) | GI50 (SR): > 100 µM (inactive) | GI50 (SW-620): > 100 µM (inactive) | GI50 (DMS-273): > 100 µM (inactive) | GI50 (HOP-92): 85.9 µM (inactive) | GI50 (SK-MEL-2): > 100 µM (inactive) | GI50 (RXF 393): > 100 µM (inactive) | GI50 (MOLT-4): > 100 µM (inactive) | GI50 (NCI-H226): > 100 µM (inactive) | GI50 (HT-29): > 100 µM (inactive) | GI50 (IGROV-1): > 100 µM (inactive) | GI50 (K562): > 100 µM (inactive)

NC(=O)c1coc(C2OC(CO)C(O)C2O)n1 (stereo not given)
GI50 (NCI-H522): > 100 µM (inactive) | GI50 (HL-60): > 100 µM (inactive) | GI50 (LOX IMVI): > 100 µM (inactive) | GI50 (HOP-18): > 100 µM (inactive) | GI50 (SF-539): > 100 µM (inactive) | GI50 (NCI-H23): > 100 µM (inactive) | GI50 (SNB-19): > 100 µM (inactive) | GI50 (SNB-78): > 100 µM (inactive) | GI50 (LXFL 529): > 100 µM (inactive) | GI50 (CAKI-1): > 10 µM (inactive) | GI50 (A549): > 100 µM (inactive) | GI50 (HCT-116): > 100 µM (inactive) | GI50 (HCT-15): > 100 µM | GI50 (DMS-114): > 100 µM (inactive) | GI50 (ACHN): > 100 µM (inactive) | GI50 (SF-268): > 100 µM (inactive) | GI50 (COLO 205): > 100 µM (inactive) | GI50 (OVCAR-3): > 100 µM (inactive) | GI50 (EKVX): > 100 µM (inactive) | GI50 (NCI-H460): > 100 µM (inactive) | GI50 (786-0): > 100 µM (inactive) | GI50 (SK-MEL-28): > 100 µM (inactive) | GI50 (SN12C): > 100 µM (inactive) | GI50 (UACC-62): > 100 µM (inactive) | GI50 (UO-31): > 100 µM (inactive) | GI50 (CCRF-CEM): > 100 µM (inactive) | GI50 (RPMI-8226): > 100 µM (inactive) | GI50 (HOP-62): > 100 µM (inactive) | GI50 (U-251): > 100 µM (inactive) | GI50 (KM12): > 100 µM (inactive) | GI50 (Malme-3M): > 100 µM (inactive) | GI50 (OVCAR-5): > 100 µM (inactive) | GI50 (A498): > 100 µM (inactive) | GI50 (SK-OV-3): > 100 µM (inactive) | GI50 (TK-10): > 100 µM (inactive) | GI50 (HCC 2998): > 100 µM (inactive) | GI50 (KM-20L2): > 100 µM (inactive) | GI50 (M14): > 100 µM (inactive) | GI50 (OVCAR-4): > 100 µM (inactive) | GI50 (M19-MEL): > 100 µM (inactive) | GI50 (SR): > 100 µM (inactive) | GI50 (SW-620): > 100 µM (inactive) | GI50 (DMS-273): > 100 µM (inactive) | GI50 (HOP-92): > 100 µM (inactive) | GI50 (SK-MEL-2): > 100 µM (inactive) | GI50 (MOLT-4): > 100 µM (inactive) | GI50 (NCI-H226): > 100 µM (inactive) | GI50 (HT-29): > 100 µM (inactive) | GI50 (IGROV-1): > 100 µM (inactive) | GI50 (K562): > 100 µM (inactive)
